Experimental data reported in patent publication US20250066323A1, “INHIBITORS OF HUMAN RESPIRATORY SYNCYTIAL VIRUS AND METAPNEUMOVIRUS” (priority 2023, published 2025).
Read-outs that look alike come from different tables or passages of the source.

Tests used:
hMPV-GFP = hMPV-GFP viral replication assay; format: cell-based, human metapneumovirus; settings: read-out: hMPV EC50
Description: GFP expressing rgHMPV #3 p3 was generated in Dr. Buchholz's lab (Biacchesi S. et al., J Virol. 2007 June; 81(11): 6057-6067.) and propagated in VERO cells (kidney tissue derived from a normal, adult African green monkey. ATCC Cat #CCL-81) with infection Multiplicity of Infection (MOI) of 0.1. Virus was harvested 4 days after infection by collecting all culture material and freeze-thaw the viral culture in liquid nitrogen twice. To generating virus working stocks, thaw frozen samples in 37° C. water bath then centrifuge at 218 g for 15 min at 4° C. Add 1/10 of 10×SPG (Biological Industries 06-3061-01-5A), mix, aliquot supernatant, and quick-freeze in liquid nitrogen then transfer to −80° C. freezer for storage. Virus titer was determined by performing titration test in 96-well plates and calculate approximate virus titer using GFP event/well data.
Compound plates were prepared by dispensing compounds dissolved in DMSO into wells of 384 well coming 3985 polystyrene flat clear bottom optical imaging microplates (202.5 nL/well) using an ECHO acoustic dispenser. Each compound was tested in a 10-point serial 3-fold dilution (typical final concentrations: 40,300 nM-2 nM). […] Continuous culture of VERO cells were maintained in complete culture media (OptiMEM supplemented with 2 mM GlutaMAX™ and 100 U/ml Penicillin-Streptomycin). To set up the assay, trypsinize VERO cells with 0.25% Trypsin-EDTA until cells dislodge, then re-suspend cells with 1 mL FBS. Spin down cells at 300 g for 5 min and wash cells twice in culture media, then count cells using default parameters on ViCell. Cells were then diluted to 100,000 cells/ml (5,000 cells/50 μl) in complete culture media+TrypLE Select (80 μl/ml). Add hMPV-GFP virus to cells at 125,000 pfu/ml (MOI=1.25). Mix by gentle inversion. 10 μl/well of 100% DMSO was dispensed to CellTiter-Glo (CTG) assay Max_E controls wells. Dispense cells at 50 μl/well using Bravo and 50 μl filtered tips into compound plates. Cover plates with MicroClime lids loaded with 7.5 ml of assay media to minimize evaporation. Lightly shake plate for 10 minutes at room temperature then incubate at 37 degrees C. and 5% CO2 for 48 hrs. Following incubation, distinct, GFP-expressing cells are counted using an Acumen imaging system with appropriate settings. A same-well CTG assay is performed by adding 10 μl/well reconstituted CellTiter-Glo reagent (Promega G7573) and reading plates on PerkinElmer Envision according to manufacturer's instructions. Raw data were loaded and analyzed in ActivityBase. Antiviral IC50 and cytotoxicity CC50 values were determined using a 4 parameter logistic fit based on the Levenberg-Marquardt algorithm. Model: 205-4 Parameter Logistic.

RSV-A2-GFP = RSV-A2-GFP viral replication assay; format: cell-based, Human Respiratory Syncytial Virus
How it was run: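 Calu-1 cells in DMEM/2% FBS infected with RSV-A2 expressing GFP between P and M genes (24,000 pfu/ml, MOI=1.2), 10-point 3-fold dilutions (typical final 403 nM-0.02 nM or 40.3 nM-0.002 nM). After 96 h at 37°C, GFP-positive cells imaged; same-well CellTiter-Glo for cytotoxicity. IC50/CC50 by 4-parameter logistic fit.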

[1] = human metapneumovirus, Vero, 48 h
[2] = human respiratory syncytial virus, Calu-1, 96 h, read-out: RSV EC50, Calu-1 cells, RSV-A2-GFP MOI=1.2, 96 hrs, GFP-expressing cells counted
[3] = VERO cells, hMPV-GFP MOI=1.25, 48 hrs, GFP-expressing cells counted
[4] = read-out: RSV EC50, Calu-1 cells, RSV-A2-GFP MOI=1.2, 96 hrs, GFP-expressing cells counted

SMILES	EC50 (hMPV-GFP; [1]) [nM]	EC50 (RSV-A2-GFP; [2]) [nM]	EC50 (hMPV-GFP; [3]) [nM]	EC50 (RSV-A2-GFP; [4]) [nM]
Cn1nc(-c2cscn2)cc1C(=O)NCC(O)(c1cc(C(C)(C)N)cc(-c2ccc(F)cc2)n1)C(F)F (single isomer, unassigned) [Example 24-A]	> 100	< 10	–	–
Cn1nc(-c2cscn2)cc1C(=O)NCC(O)(c1cc(C(C)(C)N)cc(-c2ccc(F)cc2)n1)C(F)F (single isomer, unassigned) [Example 24-B]	–	–	> 100	10 to 100
Cc1nc(-c2ncccn2)sc1C(=O)NCC(O)(c1cc(C(C)(C)N)cc(-c2ccc(F)cc2)n1)C(F)(F)F (single isomer, unassigned) [Example 25-A]	> 100	–	–	10 to 100
Cc1nc(-c2ncccn2)sc1C(=O)NCC(O)(c1cc(C(C)(C)N)cc(-c2ccc(F)cc2)n1)C(F)(F)F (single isomer, unassigned) [Example 25-B]	–	–	> 100	> 100
Cn1nc(-c2cscn2)cc1C(=O)NCC(O)(c1cc(C(C)(C)N)cc(-c2ccc(F)cc2)n1)C(F)(F)F (single isomer, unassigned) [Example 26-A]	> 100	< 10	–	–
Cn1nc(-c2cscn2)cc1C(=O)NCC(C)(O)c1cc(C2(C)CCNC2)cc(-c2ccc(F)cc2)n1 (single isomer, unassigned) [Example 27-A]	> 100	–	–	> 100
Cn1nc(-c2cscn2)cc1C(=O)NCC(C)(O)c1cc(C2(C)CCNC2)cc(-c2ccc(F)cc2)n1 (single isomer, unassigned) [Example 27-B]	–	–	> 100	> 100
Cn1nc(-c2cscn2)cc1C(=O)NCC(C)(O)c1cc(C2(C)CCNC2)cc(-c2ccc(F)cc2)n1 (single isomer, unassigned) [Example 27-C]	–	–	> 100	< 10
Cn1nc(-c2cscn2)cc1C(=O)NCC(C)(O)c1cc(C2(C)CCNC2)cc(-c2ccc(F)cc2)n1 (single isomer, unassigned) [Example 27-D]	–	–	> 100	< 10
Cn1nc(-c2cscn2)cc1C(=O)NCC(C)(O)c1cc2c(c(-c3ccc(F)cc3)n1)OCC2(C)N (single isomer, unassigned) [Example 28-A]	> 100	–	–	< 10
Cn1nc(-c2cscn2)cc1C(=O)NCC(C)(O)c1cc2c(c(-c3ccc(F)cc3)n1)OCC2(C)N (single isomer, unassigned) [Example 28-B]	–	–	> 100	10 to 100
Cn1nc(-c2cscn2)cc1C(=O)NCC(C)(O)c1cc2c(c(-c3ccc(F)cc3)n1)OCC2(C)N (single isomer, unassigned) [Example 28-C]	–	–	> 100	> 100
Cn1nc(-c2cscn2)cc1C(=O)NCC(C)(O)c1cc2c(c(-c3ccc(F)cc3)n1)OCC2(C)N (single isomer, unassigned) [Example 28-D]	–	–	> 100	10 to 100
